Measured values: article PMC9552003, “Chemosensory protein 4 is required for Bradysia odoriphaga to be olfactory attracted to sulfur compounds released from Chinese chives” (Frontiers in Physiology, 2022)
Several values for one entry are separate records, joined by “and”; a condition that tells them apart may be missing. Equal entries are not always repeated. Where two headings read alike, the source gives them in different places.

Columns and labels:
recombinant BodoCSP4 = recombinant BodoCSP4 (Bradysia odoriphaga, UniProt A0A2S0X9L0); test: biochemical; format: binding
Protocol: An F-380 fluorescence spectrophotometer (Tianjin, China) was used to measure the binding affinity of BodoCSP4 to the selected volatiles, using 1-N-phenyl-naphthylamine (1-NPN) as the fluorescent probe. […] Both 1-NPN and the volatile compounds were diluted in chromatographic-grade methanol to make 1 mM stock solutions. Recombinant BodoCSP4 was dissolved in 20 mM Tris-HCl (pH 7.4) and diluted to a 2 µM stock solution.

[1] = tested on: B. odoriphaga male adults; design: method as in Zhang et al. (2021); conditions: ref Zhang et al. (2021); cited from earlier work
[2] = tested on: antennae of both male and female B. odoriphaga; design: method as in Yang et al., 2019; conditions: ref Yang et al., 2019; cited from earlier work
[3] = tested on: B. odoriphaga male adults; test: Y-tube olfactometer assay after dsRNA injection; format: in vivo, Bradysia odoriphaga; conditions: for effect of silencing of BodoCSP4 on behavioral response of male adults to the ligand: RNAi, Y-tube olfaction assays; for behavioral response (attraction to ligand vs hexane control): n = 60, chi-square test
Excerpt: The primer pairs dsCSP4 and dsGFP, containing the T7 promoter sequence, are listed in Table 1, and the T7 RiboMAX ™ Express RNAi System was used to synthesize double stranded RNAs (dsRNAs). The dsRNAs were microinjected into 3-day-old pupae of B. odoriphaga, and newly eclosed male adults were selected for dsRNA extraction and behavioral assays as previously described ([Yang et al., 2021b]; [Zhang et al., 2021]). According to the fluorescence binding results, after BodoCSP4 was silenced, a Y-tube olfactometer was used to assess the behavioral responses of B. odoriphaga male adults to the ligands diallyl disulfide, methyl allyl disulfide, and n-heptadecane as described in our previous report ([Yang et al., 2019]). In brief, a 10-μL solution of diallyl disulfide, methyl allyl disulfide, or n-heptadecane in hexane was placed on a strip (4 × 40 mm) of filter paper; after 10 s, the strip was placed at the end of one of the two Y-tube arms. As a control, a hexane-treated filter paper strip was placed at the end of the other arm. Two streams of clean air were passed through the Y-tube arms to the base, and one adult male that had been previously injected (at the pupal stage, 12 h before emergence) with dsBodoCSP4 or dsGFP was placed in the base of the Y-tube. If the male adult moved at least half way up one of the Y-tube arms, the result was recorded and considered an indication of attraction or repulsion depending on which arm was selected. Each of six treatment combinations (3 host plant volatiles with controls and dsBodoCSP4 or dsGFP microinjected adults) are represented by 60 replicate assays.
All RT-qPCR experiments were analyzed using one-way ANOVA followed by Tukey-HSD tests with SPSS 20.0 software. All RT-qPCR experiments were conducted using three independent biological replicates. In each of the six Y-tube olfactometer assays (3 ligands and controls without ligand × two types of microinjected B. odoriphaga adult males), behavioral responses to filter paper with or without ligand were analyzed by a chi-square test (χ 2).

[4] = tested on: B. odoriphaga male adults; design: method as in Li H. J. et al., 2007; conditions: extract from the abdomen of B. odoriphaga females; ref Li H. J. et al., 2007; cited from earlier work
[5] = recombinant BodoCSP4, Supplemental Table 2, IC50, read-out: IC50
[6] = recombinant BodoCSP4, Supplemental Table 2, Ki, read-out: Ki
[7] = Ki, recombinant BodoCSP4, Supplemental Table 2, Ki
[8] = recombinant BodoCSP4, competitive with 1-NPN, values in text, read-out: binding affinity (Ki)

recombinant BodoCSP4, sequence (A0A2S0X9L0 entry or part of it): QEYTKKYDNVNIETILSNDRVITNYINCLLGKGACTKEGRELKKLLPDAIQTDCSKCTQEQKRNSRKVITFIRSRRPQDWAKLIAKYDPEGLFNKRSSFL

CCCCCCCC=O [Octanal]
IC50 (recombinant BodoCSP4; [5]): > 50 µM | Ki (recombinant BodoCSP4; [6]): > 50 µM

CCCCCCCCCCCC=O [Dodecyl aldehyde]
IC50 (recombinant BodoCSP4; [5]): > 50 µM | Ki (recombinant BodoCSP4; [6]): > 50 µM

C=C1CC/C=C(/C)CC[C@@H]2[C@@H]1CC2(C)C [ß-caryophyllene]
IC50 (recombinant BodoCSP4; [5]): > 50 µM | Ki (recombinant BodoCSP4; [6]): > 50 µM

CC(=O)/C=C/C1=C(C)CCCC1(C)C [Beta-Ionone]
IC50 (recombinant BodoCSP4): > 50 µM | Ki (recombinant BodoCSP4; [7]): > 50 µM

O=Cc1ccccc1 [benzaldehyde]
IC50 (recombinant BodoCSP4): > 50 µM | Ki (recombinant BodoCSP4; [7]): > 50 µM

CCCCC=O [Valeric aldehyde]
IC50 (recombinant BodoCSP4; [5]): > 50 µM | Ki (recombinant BodoCSP4; [6]): > 50 µM

CCCCCCCCCCCCCCCC [Hexadecane]
IC50 (recombinant BodoCSP4; [5]): > 50 µM | Ki (recombinant BodoCSP4; [6]): > 50 µM

c1ccc(Nc2cccc3ccccc23)cc1 [1-NPN, N-phenyl-1-naphthylamine, reference compound]
Kd (recombinant BodoCSP4): 1.08 µM

CCCCCCCCCCCCCC [Tetradecane]
IC50 (recombinant BodoCSP4; [5]): > 50 µM | Ki (recombinant BodoCSP4; [6]): > 50 µM

CCCCCCCCCC=O [Decanal]
IC50 (recombinant BodoCSP4; [5]): > 50 µM | Ki (recombinant BodoCSP4; [6]): > 50 µM

CC(C)=CCCC(C)CCO (centres unmarked) [Citronellol]
IC50 (recombinant BodoCSP4; [5]): > 50 µM | Ki (recombinant BodoCSP4; [6]): > 50 µM

CCCCC(C)=O [2-Hexanone]
IC50 (recombinant BodoCSP4): > 50 µM | Ki (recombinant BodoCSP4; [7]): > 50 µM

CCCCCCCCC [Nonane]
IC50 (recombinant BodoCSP4; [5]): > 50 µM | Ki (recombinant BodoCSP4; [6]): > 50 µM

Cc1ccc(C(C)C)cc1O [Carvaceol]
IC50 (recombinant BodoCSP4; [5]): > 50 µM | Ki (recombinant BodoCSP4; [6]): > 50 µM

C=CC(C)(O)CCC=C(C)C (centres unmarked) [Linalool]
IC50 (recombinant BodoCSP4): > 50 µM | Ki (recombinant BodoCSP4; [7]): > 50 µM

C/C1=C\CC/C(C)=C/CC(C)(C)/C=C/C1 [a-Humulene]
IC50 (recombinant BodoCSP4; [5]): > 50 µM | Ki (recombinant BodoCSP4; [6]): > 50 µM

C=CCSSCC=C [Diallyl disulfide]
effect of silencing of BodoCSP1 on behavioral response of male adults [1]: reduced the behavioral response | Ki (recombinant BodoCSP4; binding affinity (Ki), recombinant BodoCSP4, competitive with 1-NPN, values in text): 5.71 µM and < 10 µM | electrophysiological responses from the antennae [2]: strong electrophysiological responses | effect of silencing of BodoCSP4 on behavioral response of male adults to the ligand [3]: significantly decreased | behavioral response (attraction to ligand vs hexane control) ([3]; dsBodoCSP4-treated adult males): no olfactory attraction | behavioral response (attraction to ligand vs hexane control) ([3]; dsGFP-treated adult males): attracted

CC/C=C\CCO [cis-3-Hexen-1-ol]
IC50 (recombinant BodoCSP4): > 50 µM | Ki (recombinant BodoCSP4; [7]): > 50 µM

C=C1CCC2CC1C2(C)C (centres unmarked) [ß-pinene]
IC50 (recombinant BodoCSP4; [5]): > 50 µM | Ki (recombinant BodoCSP4; [6]): > 50 µM

CCCCCCC=O [heptanal]
IC50 (recombinant BodoCSP4): > 50 µM | Ki (recombinant BodoCSP4; [6]): > 50 µM

C=CC(=O)OCCCC [Butyl Acrylate]
IC50 (recombinant BodoCSP4): > 50 µM | Ki (recombinant BodoCSP4; [7]): > 50 µM

CCCCCCCCC=O [nonanal]
IC50 (recombinant BodoCSP4; [5]): > 50 µM | Ki (recombinant BodoCSP4; [6]): > 50 µM

c1ccc2[nH]ccc2c1 [(H-11)indole]
IC50 (recombinant BodoCSP4; [5]): > 50 µM | Ki (recombinant BodoCSP4; [6]): > 50 µM

CCCCCCCCCCCCCCCCC [n-Heptadecane]
Ki (recombinant BodoCSP4; [8]): 6.85 µM and < 10 µM | behavioral response in male adults [4]: elicits a behavioral response | effect of silencing of BodoCSP4 on behavioral response of male adults to the ligand [3]: significantly decreased | behavioral response (attraction to ligand vs hexane control) ([3]; dsBodoCSP4-treated adult males): no olfactory attraction | behavioral response (attraction to ligand vs hexane control) ([3]; dsGFP-treated adult males): attracted

CC12CCC(CC1)C(C)(C)O2 [1,8-Cineole]
IC50 (recombinant BodoCSP4): > 50 µM | Ki (recombinant BodoCSP4; [6]): > 50 µM

CC(=O)c1ccccc1 [Acetophenone]
IC50 (recombinant BodoCSP4): > 50 µM | Ki (recombinant BodoCSP4; [6]): > 50 µM

COC(=O)Cc1ccccc1 [Methyl phenylacetate]
IC50 (recombinant BodoCSP4): > 50 µM | Ki (recombinant BodoCSP4; [7]): > 50 µM

CCCCOC(=O)CCC(C)=O [Butyl levulinate]
IC50 (recombinant BodoCSP4; [5]): > 50 µM | Ki (recombinant BodoCSP4; [6]): > 50 µM

C=CC(C)=CCC=C(C)C [Ocimene]
IC50 (recombinant BodoCSP4; [5]): > 50 µM | Ki (recombinant BodoCSP4; [6]): > 50 µM

C=CCSSC [Methyl allyl disulfide]
effect of silencing of BodoCSP1 on behavioral response of male adults [1]: reduced the behavioral response | Ki (recombinant BodoCSP4; [8]): 5.71 µM and < 10 µM | electrophysiological responses from the antennae [2]: strong electrophysiological responses | effect of silencing of BodoCSP4 on behavioral response of male adults to the ligand [3]: did not decrease | behavioral response (attraction to ligand vs hexane control) ([3]; dsBodoCSP4-treated adult males): attracted | behavioral response (attraction to ligand vs hexane control) ([3]; dsGFP-treated adult males): attracted

C=C(C)[C@H]1CC=C(C)CC1 [(R)-(+)-Limonene]
IC50 (recombinant BodoCSP4; [5]): > 50 µM | Ki (recombinant BodoCSP4; [6]): > 50 µM

CCCCCCCCCCCC [Dodecane]
IC50 (recombinant BodoCSP4; [5]): > 50 µM | Ki (recombinant BodoCSP4; [6]): > 50 µM
